From PubChem BioAssay (NCI)
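Method: 48-hour compound exposure of cells in 96-well plates, five concentrations, linear interpolation of endpoints. GI50: concentration for 50% inhibition of growth. TGI marks complete inhibition of growth.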

Columns and labels:
Test in all cases: growth of human tumour cells (NCI), 48 h
NCI-H460 lung = tested on: NCI-H460 lung
COLO 205 colon = tested on: COLO 205 colon
SF-268 CNS = tested on: SF-268 CNS
HCT-15 colon = tested on: HCT-15 colon
ACHN renal = tested on: ACHN renal
HOP-62 NSCLC = tested on: HOP-62 NSCLC
UACC-62 melanoma = tested on: UACC-62 melanoma
KM12 colon = tested on: KM12 colon
NCI-H522 lung = tested on: NCI-H522 lung

Row | SMILES | TGI (NCI-H460 lung) | TGI (COLO 205 colon) | TGI (SF-268 CNS) | TGI (HCT-15 colon) | TGI (ACHN renal) | TGI (HOP-62 NSCLC) | TGI (UACC-62 melanoma) | TGI (KM12 colon) | TGI (NCI-H522 lung) | GI50 (NCI-H460 lung) | GI50 (SF-268 CNS) | GI50 (HCT-15 colon) | GI50 (ACHN renal) | GI50 (HOP-62 NSCLC) | GI50 (UACC-62 melanoma) | GI50 (KM12 colon)
1 | O=c1[nH]cnc2c1nnn2C1C=C(CO)C(O)C1O (configuration not stated) | > 100 µM | > 100 µM | > 100 µM | > 100 µM | > 100 µM | > 100 µM | > 100 µM | > 100 µM |  |  |  |  |  |  |  | 
2 | COc1ccc(C(=O)Nc2ccccc2C#N)cc1 | > 100 µM | > 100 µM | > 100 µM | > 100 µM | > 100 µM | > 100 µM | > 100 µM | > 100 µM |  |  |  |  |  |  |  | 
3 | O=C1/C(=C/c2ccccc2Cl)COc2ccccc21 | 43.6 µM | 40.1 µM | 34.1 µM |  | 34.6 µM | 35 µM |  | 34.9 µM | 30.5 µM |  |  |  |  |  |  | 
4 | COC(=O)[C@@]12C3=NO[C@]1(C(=O)OC)C(O[Si](C)(C)C(C)(C)C)C1OC(C)(C)OC1[C@@H]2[C@@H](OCc1ccccc1)CC3 (some centres not stated) |  | > 100 µM |  | > 100 µM |  |  | > 100 µM | > 100 µM |  |  |  |  |  |  |  | 
5 | COc1cc(-c2[nH]ncc2CCCC(=O)Nc2ccccc2[N+](=O)[O-])ccc1O |  | > 100 µM | > 100 µM | > 100 µM | > 100 µM | > 100 µM | > 100 µM |  | > 100 µM |  |  |  |  |  |  | 
6 | CC/C(=C(/CC)c1ccc(OP(=O)([O-])[O-])cc1)c1ccc(OP(=O)([O-])[O-])cc1.N.N.N.N.[Pt+4].[Pt+4] | 7.62 µM |  | 16.6 µM | 45.4 µM | 10.9 µM | 13.6 µM | 5.15 µM | > 100 µM |  | 0.933 µM | 1.73 µM | 11.8 µM | 2.08 µM | 1.75 µM | 0.901 µM | 22 µM
7 | CCOC(=O)C12CN(C34CC5CC(CC(C5)C3)C4)CC(C(=O)OCC)(C1=O)C(c1ccccc1)OC2c1ccccc1 (configuration not stated) | > 100 µM | > 100 µM | > 100 µM | > 100 µM | > 100 µM | > 100 µM | > 100 µM | > 100 µM |  |  |  |  |  |  |  | 
8 | Cc1cc2c(C)nn(Cc3ccc(Cl)cc3Cl)c2c(C#N)c1C | > 100 µM |  | > 100 µM | > 100 µM | > 100 µM | > 100 µM | > 100 µM |  |  |  |  |  |  |  |  | 
9 | COc1ccc(C(=O)Nc2ccccc2)cc1[N+](=O)[O-] | > 100 µM | > 100 µM | > 100 µM | > 100 µM |  | > 100 µM | > 100 µM | > 100 µM | > 100 µM |  |  |  |  |  |  | 
10 | CC(=O)OCC1OC(n2cnc3c(I)nc(I)nc32)C(OC(C)=O)C1OC(C)=O (configuration not stated) | 35.9 µM |  | 28.5 µM | 15.6 µM | 21.8 µM | 34.4 µM | 27.2 µM | 15.6 µM | 3.53 µM |  |  |  |  |  |  | 
11 | Clc1ccc(C2=NN(c3ccccc3)C3c4cc(Br)ccc4OCC23)cc1 (configuration not stated) | > 100 µM | > 100 µM | > 100 µM |  | > 100 µM | > 100 µM |  | > 100 µM | > 100 µM |  |  |  |  |  |  | 
12 | COC(=O)C1(c2ccc(OC)cc2)NC(c2ccccc2)C2C(=O)N(c3ccc(OC)cc3)C(=O)C21 (configuration not stated) | > 100 µM | > 100 µM | > 100 µM | > 100 µM | > 100 µM |  | > 100 µM | > 100 µM | > 100 µM |  |  |  |  |  |  | 
13 | CNS(=O)(=O)NN(C)S(=O)(=O)c1ccc(C)cc1 | > 100 µM | > 100 µM | > 100 µM |  | > 100 µM | > 100 µM | > 100 µM | > 100 µM | > 100 µM |  |  |  |  |  |  | 
14 | COC(=O)CC(CC(=O)C(=O)OC)C(=O)OC (configuration not stated) | > 100 µM | > 100 µM |  | > 100 µM | > 100 µM | > 100 µM | > 100 µM | > 100 µM |  |  |  |  |  |  |  | 
15 | CC1(C)CC[C@]2(C(=O)O)CCC3(C)C(=CCC4[C@@]5(C)CC[C@H](OC6OCC(O)C(O)C6OC6OC(CO)C(O)C(O)C6O)C(C)(C)C5CC[C@]43C)C2C1 (some centres not stated) | 4.22 µM | 3.49 µM | 4.61 µM | 4.38 µM | 3.64 µM | 4.16 µM | 3.42 µM | 4.8 µM |  |  |  |  |  |  |  | 
16 | COc1ccc(Br)c(CCCCC(=O)O)c1 | > 100 µM | > 100 µM |  | > 100 µM | > 100 µM | > 100 µM | > 100 µM |  |  |  |  |  |  |  |  | 
17 | COc1ccccc1NS(=O)(=O)c1cc(C(C)(C)C)ccc1OCCOc1ccc(C(C)(C)C)cc1S(=O)(=O)Nc1ccccc1OC | > 100 µM | > 100 µM | > 100 µM | > 100 µM | > 100 µM | > 100 µM | > 100 µM | > 100 µM |  |  |  |  |  |  |  | 
18 | COC(=O)C12C3C=CC(O3)C1C1C=CC2O1 (configuration not stated) | > 100 µM | > 100 µM | > 100 µM | > 100 µM | > 100 µM |  |  | > 100 µM | > 100 µM |  |  |  |  |  |  | 
19 | CC1=C(C(=O)Nc2cc(F)c(F)cc2F)C(c2cccc([N+](=O)[O-])c2)C(C(=O)Nc2ccccc2C(F)(F)F)=C(C)N1 (configuration not stated) | 43.6 µM | > 100 µM | 54.6 µM |  | 66.1 µM | 54.5 µM |  | 47.4 µM | 34.7 µM |  |  |  |  |  |  | 
20 | O=[N+]([O-])c1ccc(N=Nc2c(O)[nH]c3ccc(Br)cc23)c([N+](=O)[O-])c1 |  | 5.92 µM | 16.6 µM | 11.6 µM | 9.44 µM | 21 µM | 16.2 µM | 79.6 µM | 8.35 µM |  |  |  |  |  |  | 
